Columns and labels:
Type in all cases: in vivo
[1] = tested on: oat, wild (wild oat, Avena fatua); test: Test C postemergence, wild oat; conditions: for Oat, Wild plant response rating: visual injury, 0 to 100 scale (0 no effect, 100 complete control); for Plant response rating (0 to 100 scale), Oat, Wild: 0 is no effect, 100 is complete control
[2] = tested on: kochia (Bassia scoparia); test: Test C preemergence, kochia; conditions: 0 is no effect, 100 is complete control
How it was run: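 Visual injury rating, 0 (no effect) to 100 (complete control), versus untreated controls after 10 or 12 days in the greenhouse. Compounds were formulated in non-phytotoxic solvent plus surfactant and applied either as a directed soil spray at sowing or onto emerged one- to two-leaf plants.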

[3] = tested on: blackgrass (Alopecurus myosuroides); test: Test C postemergence, blackgrass; conditions: 125 g ai/ha Postemergence; 0 is no effect, 100 is complete control

SMILES	Oat, Wild plant response rating ([1]; 31 g ai/ha Postemergence)	Oat, Wild plant response rating ([1]; 125 g ai/ha Postemergence)	Plant response rating (0 to 100 scale), Kochia ([2]; 31 g ai/ha Preemergence)	Plant response rating (0 to 100 scale), Kochia ([2]; 125 g ai/ha Preemergence)	Plant response rating (0 to 100 scale), Blackgrass [3]	Plant response rating (0 to 100 scale), Oat, Wild ([1]; 125 g ai/ha Postemergence)
Cc1cc(C)c(N2CCC(OCC3CC3(F)F)C2=O)cc1NS(=O)(=O)C(F)(F)F (centres unmarked) [Compound 41]	30	30	100	100		
Cc1cc(C)c(N(C(=O)OC(C)C)S(=O)(=O)C(F)(F)F)cc1N1CCC(OC2CC2)C1=O (centres unmarked) [Compound 18]	0		0	60	0	0
Cc1c(NS(=O)(=O)C(F)(F)F)cc(N2CCC(OC3CCC3)C2=O)c(C)c1F (centres unmarked) [Compound 25]	0		70	100	90	20
Cc1cc(C)c(N2CCC(OCC3CCCC3)C2=O)cc1NS(=O)(=O)C(F)(F)F (centres unmarked) [Compound 57]	10	10	60	80		
Cc1c(NS(=O)(=O)C(F)(F)F)cc(N2CCC(OCC3CC3)C2=O)c(C)c1F (centres unmarked) [Compound 63]	0	40	90	100		
Cc1c(N2CCC(OC3CC3)C2=O)cc(N(COC(=O)C(C)(C)C)S(=O)(=O)C(F)(F)F)c(C)c1C (centres unmarked) [Compound 49]	30	70	30	70		
Cc1cc(C)c(N2CCC(OCc3ccccc3)C2=O)cc1NS(=O)(=O)C(F)(F)F (centres unmarked) [Compound 61]	20	80	90	100		
Cc1cc(C)c(N(COC(=O)C(C)(C)C)S(=O)(=O)C(F)(F)F)cc1N1CCC(OCC2CC2(F)F)C1=O (centres unmarked) [Compound 54]	10	80	0	30		
Cc1cc(C)c(N2CCC(OCC3CCC3(F)F)C2=O)cc1NS(=O)(=O)C(F)(F)F (centres unmarked) [Compound 52]	10	60	70	100		
Cc1cc(C)c(N2CCC(OCC3CCC3)C2=O)cc1NS(=O)(=O)C(F)(F)F (centres unmarked) [Compound 43]	10	20	60	80		
C#CC(C)OC1CCN(c2cc(NS(=O)(=O)C(F)(F)F)c(C)cc2C)C1=O (centres unmarked) [Compound 58]	60	90	80	90		
Cc1cc(C)c(N2CCC(OCC3CCCO3)C2=O)cc1NS(=O)(=O)C(F)(F)F (centres unmarked) [Compound 42]	0	40	20	90		
Cc1c(NS(=O)(=O)C(F)(F)F)cc(N2CCC(OC3CC3)C2=O)c(C)c1C (centres unmarked) [Compound 47]	10	60	70	100		
Cc1c(N2CCC(OC3CCC3)C2=O)cc(N(C(=O)OCC(C)C)S(=O)(=O)C(F)(F)F)c(C)c1C (centres unmarked) [Compound 48]	10	20	10	90		
Cc1c(NS(=O)(=O)C(F)(F)F)cc(N2CCC(OCC3CCC3)C2=O)c(C)c1F (centres unmarked) [Compound 64]	0	10	70	90		

— patent publication US20240158348A1, “HERBICIDAL CYCLIC AMIDES N-SUBSTITUTED WITH A HALOALKYLSULFONYLANILIDE GROUP” (FMC Corporation, priority 2021, published 2024)
